Experimental data as given in US9706777B2.

Tested on: Alternaria solani
Assay: Alternaria test (tomatoes)/preventive
Conditions: 100 ppm a.i.; preventive spray on young tomato plants; evaluated 3 days after inoculation; 0% = untreated control, 100% = no disease
Experimental: The degree of efficacy, expressed in % is denoted.
In this case, the efficacy which was actually observed must be greater than the value for the expected efficacy (E) calculated from the abovementioned formula.
After the spray coating has dried on, the plants are inoculated with an aqueous spore suspension of Alternaria solani. The plants are then placed in an incubation cabinet at approximately 20° C. and a relative atmospheric humidity of 100%.
The test is evaluated 3 days after the inoculation.

SMILES: C#CCOc1ccc(CCNC(=O)C(OCC#C)c2ccc(Cl)cc2)cc1OC (stereo not shown) [F206 mandipropamid, mandipropamid]
- Efficacy in % found: 0%
